Patent US20110257168A1, “DERIVATIVES OF OXABISPIDINE AS NEURONAL NICOTINIC ACETYLCHOLINE RECEPTOR LIGANDS” (Targacept, Inc., priority 2008, published 2011)
Like-named read-outs stand apart in the source and are kept apart here.

Legend:
Human α7 = target: T1, Human α7 (Homo sapiens, UniProt P36544); experiment: Competition binding to human α7 receptors in membrane preparations
T1 construct: host or cells: HEK cells co-expressing RIC3
Description: (§1) SH-EP1/human α4β2 (Eaton et al., 2003), SH-EP1/human α4β4 (Gentry et al., 2003), SH-EP1/α6β3β4α5 (Grinevich et al., 2005), TE671/RD and SH-SY5Y cell lines (obtained from Dr. Ron Lukas, Barrow Neurological Institute) were maintained in proliferative growth phase in Dulbecco's modified Eagle's medium (Gibco/BRL) with 10% horse serum (Gibco BRL), 5% fetal bovine serum (HyClone, Logan Utah), 1 mM sodium pyruvate, 4 mM L-glutamine. For maintenance of stable transfectants, the α4β2 and α4β4 cell media was supplemented with 0.25 mg/mL zeocin and 0.13 mg/mL hygromycin B. Selection was maintained for the α6β3β4α5 cells with 0.25 mg/mL of zeocin, 0.13 mg/mL of hygromycin B, 0.4 mg/mL of geneticin, and 0.2 mg/mL of blasticidin. HEK/human α7/RIC3 cells (obtained from J. Lindstrom, U. Pennsylvania) were maintained in proliferative growth phase in Dulbecco's modified Eagle's medium (Gibco/BRL) with 10% fetal bovine serum (HyClone, Logan Utah), 1 mM sodium pyruvate, 4 mM L-glutamine, 0.4 mg/mL geneticin; 0.2 mg/ml hygromycin B.
(§2) Preparation of membranes from rat tissues. Rat cortices were obtained from Analytical Biological Services, Incorporated (ABS, Wilmington, Del.). Tissues were dissected from female Sprague-Dawley rats, frozen and shipped on dry ice. Tissues were stored at −20° C. until needed for membrane preparation. Cortices from 10 rats were pooled and homogenized by Polytron (Kinematica GmbH, Switzerland) in 10 volumes (weight:volume) of ice-cold preparative buffer (KCl, 11 mM; KH2PO4, 6 mM; NaCl 137 mM; Na2HPO4 8 mM; HEPES (free acid), 20 mM; iodoacetamide, 5 mM; EDTA, 1.5 mM; 0.1 mM PMSF pH 7.4). The resulting homogenate was centrifuged at 40,000 g for 20 minutes at 4° C. and the resulting pellet was resuspended in 20 volumes of ice-cold water. After 60-minute incubation at 4° C., a new pellet was collected by centrifugation at 40,000 g for 20 minutes at 4° C. The final pellet was resuspended in preparative buffer and stored at −20° C. On the day of the assay, tissue was thawed, centrifuged at 40,000 g for 20 minutes and then resuspended in PBS (Dulbecco's Phosphate Buffered Saline, Life Technologies, pH 7.4) to a final concentration of 2-3 mg protein/mL. Protein concentrations were determined using the Pierce BCA Protein Assay kit (Pierce Biotechnology, Rockford, Ill.), with bovine serum albumin as the standard. Preparation of membranes from clonal cell lines. Cells were harvested in ice-cold PBS, pH 7.4, then homogenized with a polytron (Brinkmann Instruments, Westbury, N.Y.). Homogenates were centrifuged at 40,000 g for 20 minutes (4° C.). The pellet was resuspended in PBS and protein concentration determined using the Pierce BCA Protein Assay kit (Pierce Biotechnology, Rockford, Ill.).
(§3) Competition binding to receptors in membrane preparations. Binding to nicotinic receptors was assayed on membranes using standard methods adapted from published procedures (Lippiello and Fernandes, 1986; Davies et al., 1999). In brief, membranes were reconstituted from frozen stocks (approximately 0.2 mg protein) and incubated for 2 h on ice in […] assay buffer (PBS) in the presence of competitor compound (0.001 nM to […]) and radioligand. [^3H]-nicotine (L-(−)-[N-methyl-3H]-nicotine, 69.5 Ci/mmol, Perkin-Elmer Life Sciences) was used for human α4β2 binding studies. [^3H]-epibatidine (52 Ci/mmol, Perkin-Elmer Life Sciences) was used for binding studies at the other receptor subtypes. Incubation was terminated by rapid filtration on a multimanifold tissue harvester (Brandel, Gaithersburg, Md.) using GF/B filters presoaked in 0.33% polyethyleneimine (w/v) to reduce non-specific binding. Filters were washed 3 times and the radioactivity retained was determined by liquid scintillation counting.
(§4) Binding data analysis. Binding data were expressed as percent total control binding. Replicates for each point were averaged and plotted against the log of drug concentration. […]

human α4β2 = human α4β2 (Homo sapiens, UniProt P17787+P43681); experiment: Competition binding to human α4β2 receptors in membrane preparations
Description: as §1, §2, §3, §4

Rat α4β2 = target: T2, Rat α4β2 (Rattus norvegicus, UniProt P09483+P12390); experiment: Competition binding to rat α4β2 receptors in membrane preparations
T2 construct: Preparation of membranes from rat tissues; Rat cortices were obtained from Analytical Biological Services; tissue Analytical Biological Services, Incorporated (ABS, Wilmington, Del.); host or cells: rat cortex membranes (female Sprague-Dawley)
Description: as §2, §3
Binding data analysis. Binding data were expressed as percent total control binding. Replicates for each point were averaged and plotted against the log of drug concentration. The IC50 (concentration of the compound that produces 50% inhibition of binding) was determined by least squares non-linear regression using GraphPad Prism software (GraphPAD, San Diego, Calif.). Ki was calculated using the Cheng-Prusoff equation (Cheng and Prusoff, 1973).

[1] = membranes, [3H]-epibatidine competition, Ki by Cheng-Prusoff, read-out: Human α7 Ki
[2] = membranes, [3H]-nicotine competition, Ki by Cheng-Prusoff, read-out: human α4β2 Ki
[3] = membranes, [3H]-epibatidine competition, Ki by Cheng-Prusoff, read-out: Rat α4β2 Ki

| SMILES | Ki (Human α7; [1]) [nM] | Ki (human α4β2; [2]) [nM] | Ki (Rat α4β2; [3]) [nM] | Ki (human α4β2) [nM] | Ki (Rat α4β2) [nM] | Ki (Human α7) [nM] |
| --- | --- | --- | --- | --- | --- | --- |
| FC1(F)Oc2ccc(N3CC4CNCC(C3)O4)cc2O1 [3-(2,2-difluorobenzo[d][1,3]dioxol-5-yl)-9-oxa-3,7-diazabicyclo[3.3.1]nonane] | 90000 | 700 | – | – | – | – |
| COc1cccc(N2CC3CNCC(C2)O3)c1 [3-(3-methoxyphenyl)-9-oxa-3,7-diazabicyclo[3.3.1]nonane] | 800 | 33 | 110 | – | – | – |
| Clc1ccccc1Oc1cncc(N2CC3CNCC(C2)O3)c1 [3-(5-(2-chlorophenoxy)pyridin-3-yl)-9-oxa-3,7-diazabicyclo[3.3.1]nonane] | 430 | – | 14 | 3.6 | – | – |
| FCCOc1cc(N2CC3CNCC(C2)O3)cnc1Cl [3-(5-(2-fluoroethoxy)-6-chloropyridin-3-yl)-9-oxa-3,7-diazabicyclo[3.3.1]nonane] | 1600 | 0.21 | – | – | 0.41 | – |
| FCCCOc1cc(N2CC3CNCC(C2)O3)cnc1Cl [3-(5-(3-fluoropropoxy)-6-chloropyridin-3-yl)-9-oxa-3,7-diazabicyclo[3.3.1]nonane] | 1900 | 0.38 | – | – | 0.73 | – |
| FCCCCOc1cc(N2CC3CNCC(C2)O3)cnc1Cl [3-(5-(4-fluorobutoxy)-6-chloropyridin-3-yl)-9-oxa-3,7-diazabicyclo[3.3.1]nonane] | 1500 | 0.3 | – | – | 0.35 | – |
| FC(F)Oc1cncc(N2CC3CNCC(C2)O3)c1 [3-(5-(difluoromethoxy)pyridin-3-yl)-9-oxa-3,7-diazabicyclo[3.3.1]nonane] | 1600 | – | 0.36 | 0.42 | – | – |
| N#Cc1cc(N2CC3CNCC(C2)O3)cnc1F [3-(5-cyano-6-fluoropyridin-3-yl)-9-oxa-3,7-diazabicyclo[3.3.1]nonane] | 16000 | 19 | – | – | 24 | – |
| N#Cc1cncc(N2CC3CNCC(C2)O3)c1 [3-(5-cyanopyridin-3-yl)-9-oxa-3,7-diazabicyclo[3.3.1]nonane] | 2000 | 2.7 | – | – | 11 | – |
| Clc1ncc(N2CC3CNCC(C2)O3)cc1C1CC1 [3-(5-cyclopropyl-6-chloropyridin-3-yl)-9-oxa-3,7-diazabicyclo[3.3.1]nonane] | – | 0.18 | – | – | 14 | 87 |
| c1ncc(N2CC3CNCC(C2)O3)cc1C1CC1 [3-(5-cyclopropylpyridin-3-yl)-9-oxa-3,7-diazabicyclo[3.3.1]nonane] | 1300 | 2 | – | – | 6.4 | – |
| [O-][n+]1cc(F)cc(N2CC3CNCC(C2)O3)c1 [3-(5-fluoro-pyridine-1-oxide-3-yl)-9-oxa-3,7-diazabicyclo[3.3.1]nonane] | 54000 | 590 | – | – | – | – |
| CN1CC2CN(c3cncc(F)c3)CC(C1)O2 [3-(5-fluoropyridin-3-yl)-7-methyl-9-oxa-3,7-diazabicyclo[3.3.1]nonane] | 2100 | 33 | 280 | – | – | – |
| CN1CC2CN(c3ccc(Cl)nc3)CC(C1)O2 [3-(6-chloropyridin-3-yl)-7-methyl-9-oxa-3,7-diazabicyclo[3.3.1]nonane] | – | 120 | 1800 | – | – | – |
| CN1CC2CN(c3ccc(F)nc3)CC(C1)O2 [3-(6-fluoropyridin-3-yl)-7-methyl-9-oxa-3,7-diazabicyclo[3.3.1]nonane] | – | 140 | 1100 | – | – | – |
| Cc1ccc(N2CC3CN(C)CC(C2)O3)cn1 [3-(6-methylpyridin-3-yl)-7-methyl-9-oxa-3,7-diazabicyclo[3.3.1]nonane] | – | 150 | 1700 | – | – | – |
| c1ccc(N2CC3CNCC(C2)O3)nc1 [3-(pyridin-2-yl)-9-oxa-3,7-diazabicyclo[3.3.1]nonane] | – | 100 | 350 | – | – | – |
| CN1CC2CN(c3cnc(Cl)c(Cl)c3)CC(C1)O2 [3-methyl-7-(5,6-dichloropyridin-3-yl)-9-oxa-3,7-diazabicyclo[3.3.1]nonane] | – | 24 | – | – | 33 | – |
